# Source: patent US20150218654A1, “METHODS FOR PREDICTING MULTIPLE MYELOMA TREATMENT RESPONSE” (INSERM (INSTITUT NATIONAL DE LA SANTÉ ET DE LA RE- CHERCHE …, priority 2012, published 2015)
# Like-named read-outs stand apart in the source and are kept apart here.
# What was measured:
# [1] = test system: human myeloma cell lines (HMCLs); experiment: Growth assay for myeloma cells (Cell Titer Glo, 4 days, graded DNMTi concentrations); assay type: cell-based; details: for IC50: Homo sapiens, 5-azacitidine
# Procedure: HMCLs were cultured for 4 days in 96-well flat-bottom microtiter plates in RPMI 1640 medium, 10% FCS, 2 ng/ml IL-6 culture medium (control), with graded decitabine concentrations. Data are mean values plus or minus standard deviation (SD) of 5 experiments determined on sextuplet culture wells.
# HMCLs were cultured for 4 days in 96-well flat-bottom microtiter plates in RPMI 1640 medium, 10% FCS, 2 ng/ml IL-6 culture medium (control), and graded 5-azacitidine concentrations. Data are mean values plus or minus standard deviation (SD) of 5 experiments determined on sextuplet culture wells.
# HMCLs were cultured for 4 days in 96-well flat-bottom microtiter plates in RPMI 1640 medium, 10% FCS, 2 ng/ml IL-6 culture medium (control), with graded decitabine concentrations. Cell growth was evaluated by quantifying intracellular ATP amount with a Cell Titer Glo Luminescent Assay (Promega, Madison, Wis.) with a Centro LB 960 luminometer (Berthold Technologies, Bad Wildbad, Germany).
# The inventors sought to determine whether DM Score could predict for the sensitivity of 10 HMCLs to DNMT inhibitor. Starting from a large cohort of 40 HMCLs (22), the 10 HMCLs with the highest or lowest DM Score were selected to assay decitabine sensitivity.
# HMCLs were cultured with graded 5-azacitidine (Sigma, St. Louis, Mo.) concentrations. HMCLs cell growth was quantified with a Cell Titer Glo Luminescent Assay (Promega, Madison, Wis.) and half inhibitory concentration (IC50) was determined using GraphPad Prism (http://www.graphpad.com/scientific-software/prism/).
# [2] = test system: primary myeloma cells of patients (CD138+ viable plasma cells); experiment: Mononuclear cell culture of patients' tumor samples, count of viable CD138+ myeloma cells by flow cytometry; assay type: cell-based, human; details: primary MMCs of high DM Score patients (N=7) versus low DM Score patients (N=7), P<0.05
# Procedure: Mononuclear cells from tumor samples of 12 patients with MM were cultured for 4 days in the presence of IL-6 (2 ng/ml) with or without graded decitabine concentrations. At day 4 of culture, the cell count and the viability were determined and the percentage of CD138^+ viable plasma cells was determined by flow cytometry. Black color represents patients with high DM Score (N=6) and white represents patients with low DM Score values (N=6).
# Mononuclear cells from tumor samples of 14 patients with MM were cultured for 4 days in the presence of IL-6 (2 ng/ml) with or without graded 5-azacitidine concentrations. At day 4 of culture, the count of viable CD138′ MMCs was determined using flow cytometry. The black columns represent the mean±SD of primary myeloma cell counts (expressed as the percentage of the count without adding 5-azcytidine) of the 7 patients with a low DM Score and the white columns that of the 7 patients with a high DM Score.
# Mononuclear cells from tumor samples of 12 patients with MM (agreement of the Center for Biological Resources of Montpellier University Hospital (N° DC-2008-417)) were cultured for 4 days at 2×10^5 cells/ml in RPMI 1640 medium, 10% FCS, 2 ng/ml IL-6, with or without graded concentrations of decitabine. In each culture group, viability and cell counts were assayed and MMCs were stained with an anti-CD138-PE mAb (Immunotech, Marseille, France) as previously described (32).
# Primary myeloma cells of 14 patients were cultured with or without graded concentrations of 5-azacitidine and MMC cytotoxicity evaluated using anti-CD138-PE mAb (Immunotech, Marseille, France) as described (Jourdan, et al 1998; Mahtouk, et al 2004; Moreaux, et al 2012).
structure (smiles),measurement,setting,value
"Nc1ncn([C@@H]2O[C@H](CO)[C@@H](O)[C@H]2O)c(=O)n1 [5-azacitidine, 5-Azacytidine]",fold higher 5-azacitidine sensitivity,"[1]; HMCLs with high DM Score versus low DM Score, P=0.01",3 fold
same,IC50,"[1]; 6 HMCLs with high DM Score, read-out: IC50 range",1.12 to 8.25 µM
same,IC50,"[1]; 6 HMCLs with high DM Score, read-out: median IC50",2.43 µM
same,IC50,"[1]; 6 HMCLs with low DM Score, read-out: IC50 range",5.73 to 27.9 µM
same,IC50,"[1]; 6 HMCLs with low DM Score, read-out: median IC50",7.45 µM
same,fold higher 5-azacytidine sensitivity,[2],1.6 fold
